# Assay results published in patent EP0255256A2, “Antibiotics produced by actinomadura parvosata” (SMITHKLINE BECKMAN CORPORATION, priority 1986, dated 1988).
# Read-outs that look alike come from different tables or passages of the source.
# Columns and labels:
# Staph. aureus HH127 [1] = assay: MIC, standard microtiter assay; assay type: cell-based; conditions: Staphylococcus aureus, HH127, read-out: MIC in μg/ml, Staph. aureus HH127
# Experimental: The in vitro minimal inhibitory concentration (MIC) of the AAJ-271 complex and its factors, and vancomycin were determined for a number of microorganisms using the standard microtite'r assay procedures. The results are shown in the following tables, each of which represents a different production run of the complex.
# (§1) The in vitro minimal inhibitory concentration (MIC) and the in vitro minimal bactericidal concentration (MBC) of the AAJ-271 aglycones, pseudo-aglycone and vancomycin were determined for a number of microorganisms using the standard microtiter assay procedures.
# [2] = system: Staph. aureus 209P vancomycin resistant mutant; assay: MIC, standard microtiter assay; assay type: cell-based; conditions: Staphylococcus aureus, read-out: MIC in μg/ml
# Experimental: as §1
# Staph. epidermidis 2261 [3] = assay: MIC, standard microtiter assay; assay type: cell-based; conditions: Staphylococcus epidermidis, 2261, read-out: MIC in μg/ml
# Experimental: as §1
# Staph. aureus 2620 = assay: MBC, standard assay procedures; assay type: cell-based
# Experimental: (§2) The in vitro minimal bactericidal concentration (MBC) of the AAJ-271 C, C2 and C3 factors and vancomycin were determined for a number of microorganisms using standard assay procedures.
# as §1
# Staph. aureus 675 = assay: MBC, standard assay procedures; assay type: cell-based
# Experimental: as §2, §1
# Staph. aureus HH127 [4] = assay: MBC, standard assay procedures; assay type: cell-based; conditions: Staphylococcus aureus
# Experimental: as §2, §1
# Staph. epidermidis 2265 = assay: MBC, standard assay procedures; assay type: cell-based
# Experimental: as §2, §1
# Staph. epidermidis 2479 = assay: MBC, standard assay procedures; assay type: cell-based
# Experimental: as §2, §1
# Staph. haemolyticus 651 [5] = assay: MBC, standard assay procedures; assay type: cell-based
# Experimental: as §2, §1
# Strep. faecalis 34358 [6] = assay: MBC, standard assay procedures; assay type: cell-based
# Experimental: as §2, §1
# Strep. faecalis 657 = assay: MBC, standard assay procedures; assay type: cell-based
# Experimental: as §2, §1
# [7] = system: Staph. aureus 209P vancomycin resistant mutant; assay: MBC, standard assay procedures; assay type: cell-based; conditions: Staphylococcus aureus, read-out: MBC in μg/ml
# Experimental: as §1
# Staph. aureus 209P = assay: MBC, standard assay procedures; assay type: cell-based; conditions: Staphylococcus aureus, 209P, read-out: MBC in μg/ml
# Experimental: as §1
# Staph. aureus 910 = assay: MBC, standard assay procedures; assay type: cell-based; conditions: Staphylococcus aureus, 910, read-out: MBC in μg/ml
# Experimental: as §1
# Staph. epidermidis 2256 = assay: MBC, standard assay procedures; assay type: cell-based; conditions: Staphylococcus epidermidis, 2256, read-out: MBC in μg/ml
# Experimental: as §1
# Staph. epidermidis 2261 [8] = assay: MBC, standard assay procedures; assay type: cell-based; conditions: Staphylococcus epidermidis, 2261, read-out: MBC in μg/ml
# Experimental: as §1
# Staph. epidermidis 2588 = assay: MBC, standard assay procedures; assay type: cell-based; conditions: Staphylococcus epidermidis, 2588, read-out: MBC in μg/ml
# Experimental: as §1
# [9] = system: Staph. saprophyticus 2657; assay: MBC, standard assay procedures; assay type: cell-based; conditions: Staphylococcus saprophyticus, 2657, read-out: MBC in μg/ml
# Experimental: as §1
# [10] = system: Strep. pyogenes (Group A); assay: MBC, standard assay procedures; assay type: cell-based; conditions: Streptococcus pyogenes, read-out: MBC in μg/ml
# Experimental: as §1
# Staph. aureus HH127 [11] = assay: Mouse protection assay; assay type: in vivo; conditions: Staphylococcus aureus
# Staph. haemolyticus 651 [12] = assay: Mouse protection assay; assay type: in vivo; conditions: Staphylococcus haemolyticus, 1 h; mice; Staph. haemolyticus 651, Dosage as No. of LD50's=9; treatment one hour post infection; Table IV
# Strep. faecalis 34358 [13] = assay: Mouse protection assay; assay type: in vivo
# Staph. aureus 2630 = assay: Mouse protection assay; assay type: in vivo; conditions: Staphylococcus aureus, 2630, 1 h
# [14] = Serum half-life and urine concentration in mice (disk agar diffusion bioassay); conditions: mouse, in vivo; strain CD-1 mice; antibiotic activity in blood serum by disk agar diffusion, Bacillus subtilis ATCC 6633 indicator
# Experimental: The antibiotic compounds of the present invention also have a very long serum half-life. The compounds of the present invention have a serum half-life of 12 hours compared to 0.3 hour for vancomycin. […] Antibiotic activity in blood serum was evaluated by disk agar diffusion with penicillin assay agar that was seeded with a Bacillus subtilis ATCC 6633 spore suspension as the indicator. Serum samples were evaluated against standards diluted in mouse serum and urines were evaluated against standards prepared in 1% pH 6 phosphate buffer. Assays were incubated at 28°C. […] The long half-life of the compounds of the present invention indicate usefulness prophylactically as an aid in prevention of infection.
smiles,measurement,setting,value
"CN[C@H](CC(C)C)C(=O)N[C@H]1C(=O)N[C@@H](CC(N)=O)C(=O)N[C@H]2C(=O)N[C@H]3C(=O)N[C@H](C(=O)N[C@H](C(=O)O)c4cc(O)cc(O)c4-c4cc3ccc4O)[C@H](O)c3ccc(c(Cl)c3)Oc3cc2cc(c3O[C@@H]2O[C@H](CO)[C@@H](O)[C@H](O)[C@H]2O[C@H]2C[C@](C)(N)[C@H](O)[C@H](C)O2)Oc2ccc(cc2Cl)[C@H]1O [Vancomycin, vancomycin]",MIC,Staph. aureus HH127 [1]; Table I,1.6 µg/mL
same,MIC,Staph. aureus HH127 [1]; Table II,3.1 µg/mL
same,MIC,Staph. aureus HH127 [1]; Table IX,3.1 µg/mL
same,MIC,Staph. aureus HH127 [1]; Table VIII,1.6 µg/mL
same,MIC,[2],> 100 µg/mL
same,MIC,Staph. epidermidis 2261 [3],6.3 µg/mL
same,MBC,"Staph. aureus 2620; Staphylococcus aureus, 2620, read-out: MBC in μg/ml, Staph. aureus 2620, Table IX",3.1 µg/mL
same,MBC,"Staph. aureus 2620; Staphylococcus aureus, 2620, read-out: MBC in μg/ml, Staph. aureus 2620, Table VIII",1.6 µg/mL
same,MBC,"Staph. aureus 2620; Staphylococcus aureus, IIIB, read-out: MBC in μg/ml, Staph. aureus 2620, Table IIIB",3.1 µg/mL
same,MBC,"Staph. aureus 675; Staphylococcus aureus, 675, read-out: MBC in μg/ml, Staph. aureus 675, Table IX",6.3 µg/mL
same,MBC,"Staph. aureus 675; Staphylococcus aureus, 675, read-out: MBC in μg/ml, Staph. aureus 675, Table VIII",3.1 µg/mL
same,MBC,"Staph. aureus 675; Staphylococcus aureus, IIIB, read-out: MBC in μg/ml, Staph. aureus 675, Table IIIB",6.3 µg/mL
same,MBC,"Staph. aureus HH127 [4]; HH127, read-out: MBC in μg/ml, Staph. aureus HH127, Table IX",3.1 µg/mL
same,MBC,"Staph. aureus HH127 [4]; HH127, read-out: MBC in μg/ml, Staph. aureus HH127, Table VIII",1.6 µg/mL
same,MBC,"Staph. aureus HH127 [4]; IIIB, read-out: MBC in μg/ml, Staph. aureus HH127, Table IIIB",3.1 µg/mL
same,MBC,"Staph. epidermidis 2265; Staphylococcus epidermidis, 2265, read-out: MBC in μg/ml, Staph. epidermidis 2265, Table IX",6.3 µg/mL
same,MBC,"Staph. epidermidis 2265; Staphylococcus epidermidis, 2265, read-out: MBC in μg/ml, Staph. epidermidis 2265, Table VIII",3.1 µg/mL
same,MBC,"Staph. epidermidis 2265; Staphylococcus epidermidis, IIIB, read-out: MBC in μg/ml, Staph. epidermidis 2265, Table IIIB",6.3 µg/mL
same,MBC,"Staph. epidermidis 2479; Staph. epidermidis 2479, Table IX",6.3 µg/mL
same,MBC,"Staph. epidermidis 2479; Staphylococcus epidermidis, 2479, read-out: MBC in μg/ml",6.3 µg/mL
same,MBC,"Staph. epidermidis 2479; Staphylococcus epidermidis, IIIB, read-out: MBC in μg/ml",6.3 µg/mL
same,MBC,"Staph. haemolyticus 651 [5]; Staphylococcus haemolyticus, 651, read-out: MBC in μg/ml, Staph. haemolyticus 651, Table IX",12.5 µg/mL
same,MBC,"Staph. haemolyticus 651 [5]; Staphylococcus haemolyticus, 651, read-out: MBC in μg/ml, Staph. haemolyticus 651, Table VIII",3.1 µg/mL
same,MBC,"Staph. haemolyticus 651 [5]; Staphylococcus haemolyticus, IIIB, read-out: MBC in μg/ml, Staph. haemolyticus 651, Table IIIB",12.5 µg/mL
same,MBC,"Strep. faecalis 34358 [6]; Enterococcus faecalis, 34358, read-out: MBC in μg/ml, Strep. faecalis 34358, Table IX",12.5 µg/mL
same,MBC,"Strep. faecalis 34358 [6]; Enterococcus faecalis, 34358, read-out: MBC in μg/ml, Strep. faecalis 34358, Table VIII",50 µg/mL
same,MBC,"Strep. faecalis 34358 [6]; Enterococcus faecalis, read-out: MBC in μg/ml, Strep. faecalis 34358, Table",12.5 µg/mL
same,MBC,"Strep. faecalis 657; Enterococcus faecalis, 657, read-out: MBC in μg/ml, Strep. faecalis 657, Table IX",6.3 µg/mL
same,MBC,"Strep. faecalis 657; Enterococcus faecalis, 657, read-out: MBC in μg/ml, Strep. faecalis 657, Table VIII",3.1 µg/mL
same,MBC,"Strep. faecalis 657; Enterococcus faecalis, IIIB, read-out: MBC in μg/ml, Strep. faecalis 657, Table IIIB",6.3 µg/mL
same,MBC,[7],> 100 µg/mL
same,MBC,Staph. aureus 209P,0.8 µg/mL
same,MBC,Staph. aureus 910,1.6 µg/mL
same,MBC,Staph. epidermidis 2256,3.1 µg/mL
same,MBC,Staph. epidermidis 2261 [8],3.1 µg/mL
same,MBC,Staph. epidermidis 2588,6.3 µg/mL
same,MBC,[9],6.3 µg/mL
same,MBC,[10],0.8 µg/mL
same,ED50,"Staph. aureus HH127 [11]; HH127, 1 h",0.26 mg/kg
same,ED50,"Staph. aureus HH127 [11]; HH127, iv, 1 h",2.8 mg/kg
same,ED50,Staph. haemolyticus 651 [12],2.2 mg/kg
same,ED50,"Strep. faecalis 34358 [13]; Enterococcus faecalis, 34358, 1 h",1.25 mg/kg
same,ED50,"Strep. faecalis 34358 [13]; Enterococcus faecalis, 34358, iv, 1 h",1.3 mg/kg
same,ED50,Staph. aureus 2630,0.78 mg/kg
same,half-life,[14],18 min
